Data as given in patent US20060083784A1, “Amorphous pharmaceutical compositions” (SmithKline Beecham Corporation, priority 2002, published 2006).
Values joined by “and” are separate entries in the source; they are usually repeats but may differ in a detail not shown here. Identical values can stand only once.

How the values were obtained:
[1] = In vitro dissolution assay (modified USP 4 flow cell), Compound II samples; assay type: physicochemical; conditions: 0.1M HCl, 37° C., UV 244 nm
Experimental: (§1) The equipment used for this procedure is a modified USP 4, the major differences being: 1. low volume cell. 2. stirred cell. 3. retaining filters which are adequate at retaining sub micron material. The total run time is 40 minutes. 2.5 mg of drug (weigh proportionally more formulated material).
(§2) Flow Cell Description: Swinnex filter assemblies obtained from Millipore, having 0.2 micron Cellulose Nitrate membranes. (Millipore, Mass.) as internal filters. The internal volume of the cell is approximately 2 ml. A Small PTFE stirrer customized to fit the Swinnex assembly (Radleys Lab Equipment Halfround Spinvane F37136) is used. The dissolution medium at a flow rate of 5 ml/min is used. The whole set up is placed at a thermostat of 37° C. The drug concentration is measured by passing the eluent through a UV detector having a flow cell dimension of 10 mm. The UV detection is carried out at an appropriate wavelength for the drug.
(§3) The experimentation is designed to evaluate drug dissolution rate. As such it is unlikely with poorly soluble drugs, and with water as the dissolution medium, that 100% of the drug will dissolve in the 40 minute duration of the test. To determine the extent of drug solubility over this period one collects all 200 ml of solution that elutes from the dissolution cell. Using a conventional UV spectrophotometer, this solution is compared against a reference solution of 2.5 or 4 mg of active agent dissolved in a suitable medium.
In vitro dissolution rates of samples 2.1, 2.2, 2.3, 2.4, 2.5 and 2.6 were determined using the protocol described in the experimental section. The dissolution medium was 0.1M HCl, and the wavelength used for drug detection 244 nm. An unmilled lot of Compound II was used for comparison.

[2] = In vitro dissolution assay (modified USP 4 flow cell), Compound I samples; assay type: physicochemical; conditions: water and acetonitrile (8:2), 37° C., UV 275 nm, hemihydrate
Experimental: as §1, §2
as §3, with “cell.” for “cell. Using a conventional UV spectrophotometer, this solution is compared against a reference solution of 2.5 or 4 mg of active agent dissolved in a suitable medium.”
In vitro dissolution rates of samples 1.1, 1.2 and 1.3 were determined using the protocol described in the experimental section. The dissolution medium was a mixture of water and acetonitrile (8:2), and the wavelength used for drug detection 275 nm.

Row | Molecule | % Drug Dissolved 10 min ([1]; 10 min) [%] | % Drug Dissolved 20 min ([1]; 20 min) [%] | % Drug Dissolved 30 min ([1]; 30 min) [%] | % Drug Dissolved 40 min ([1]; 40 min) [%] | % Drug Dissolved 10 min ([2]; 10 min) | % Drug Dissolved 20 min ([2]; 20 min) | % Drug Dissolved 30 min ([2]; 30 min) | % Drug Dissolved 40 min ([2]; 40 min)
1 | CC[C@H](NC(=O)c1c(O)c(-c2ccccc2)nc2ccccc12)c1ccccc1.Cl [Compound II, 3-Hydroxy-2-phenyl-N-[(1S)-1-phenylpropyl]-4-quinolinecarboxamide monohydrochloride] | 3.8 | 6.3 | 8.5 | 10.7 | – | – | – | –
2 | 6-Acetyl-3,4-dihydro-2,2-dimethyl-trans(+)-4-(4-fluorobenzoylamino)-2H-benzo[b]pyran-3-ol hemihydrate [Compound I] | – | – | – | – | 17.4% and 12.1% | 24.3% and 18.2% | 29.4% and 23.2% | 33.8% and 27.8%
